Measurements as given in patent US10435399B2, “HDAC6 inhibitory heterocyclic compound” (TAKEDA PHARMACEUTICAL COMPANY LIMITED, priority 2017, dated 2019).

Target: T1, HDAC6 enzyme (Homo sapiens, UniProt Q9UBN7)
T1 construct: transducing full length HDAC6 gene into Sf-9 insect cells; GST; purchased SignalChem; host or cells: Sf-9 insect cells
T1 sequence (Q9UBN7 1-1215): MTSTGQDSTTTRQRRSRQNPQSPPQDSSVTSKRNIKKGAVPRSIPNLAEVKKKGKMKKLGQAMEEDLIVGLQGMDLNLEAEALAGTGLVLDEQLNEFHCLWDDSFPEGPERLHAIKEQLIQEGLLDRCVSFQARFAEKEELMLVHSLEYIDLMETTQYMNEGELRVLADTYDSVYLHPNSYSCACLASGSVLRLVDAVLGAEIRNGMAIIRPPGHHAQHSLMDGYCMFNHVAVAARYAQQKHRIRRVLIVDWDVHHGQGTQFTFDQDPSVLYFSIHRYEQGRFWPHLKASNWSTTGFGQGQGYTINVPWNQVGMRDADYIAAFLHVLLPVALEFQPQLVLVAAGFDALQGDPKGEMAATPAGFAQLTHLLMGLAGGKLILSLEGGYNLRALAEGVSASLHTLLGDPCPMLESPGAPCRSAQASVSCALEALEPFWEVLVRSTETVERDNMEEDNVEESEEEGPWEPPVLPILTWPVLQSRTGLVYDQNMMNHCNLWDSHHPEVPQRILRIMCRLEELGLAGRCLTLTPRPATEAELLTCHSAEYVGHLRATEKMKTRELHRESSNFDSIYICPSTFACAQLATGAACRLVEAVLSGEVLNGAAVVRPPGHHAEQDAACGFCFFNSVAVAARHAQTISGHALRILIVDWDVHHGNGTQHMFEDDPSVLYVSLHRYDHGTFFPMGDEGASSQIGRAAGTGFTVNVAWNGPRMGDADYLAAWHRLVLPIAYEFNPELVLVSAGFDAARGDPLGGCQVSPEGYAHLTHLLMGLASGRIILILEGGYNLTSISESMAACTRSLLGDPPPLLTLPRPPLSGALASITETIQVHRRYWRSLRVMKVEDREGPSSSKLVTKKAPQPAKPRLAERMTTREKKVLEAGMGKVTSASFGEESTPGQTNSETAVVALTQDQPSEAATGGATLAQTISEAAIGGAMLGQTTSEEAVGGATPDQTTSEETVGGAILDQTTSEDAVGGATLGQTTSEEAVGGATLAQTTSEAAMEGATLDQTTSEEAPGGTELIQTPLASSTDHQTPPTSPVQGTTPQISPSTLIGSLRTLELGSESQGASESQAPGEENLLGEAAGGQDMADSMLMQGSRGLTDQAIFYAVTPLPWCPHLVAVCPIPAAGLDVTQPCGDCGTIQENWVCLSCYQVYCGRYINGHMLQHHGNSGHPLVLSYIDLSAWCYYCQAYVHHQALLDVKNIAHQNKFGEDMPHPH
Assay: HDAC6 enzyme inhibitory activity (HDAC-Glo I/II Assay kit)
Type: biochemical
Conditions: 10 μM; wells without enzyme = 100% inhibition; read-out: HDAC6 inhibitory rate (%) (10 μM)
Method in brief: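 Sf-9-derived GST-purified full-length HDAC6 + cpd, 60 min RT, 24 mM Tris pH 7.5/0.6 mM glutathione/0.01% Tween-20; add HDAC-Glo substrate-developer, 20 min RT; luminescence. No-enzyme = 100% inhibition.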

inhibition at 10 µM [%] | SMILES
102 | O=C1c2cc(-c3nnc(C(F)F)o3)cnc2CN1[C@@H]1CCNC[C@@H]1c1ccccc1 [Example 193, 3-(5-(difluoromethyl)-1,3,4-oxadiazol-2-yl)-6-((3S,4R)-3-phenylpiperidin-4-yl)-6,7-dihydro-5H-pyrrolo[3,4-b]pyridin-5-one]
100 | COC(=O)N1CC[C@@H](N2Cc3ncc(-c4nnc(C(F)F)o4)cc3C2=O)[C@@H](c2ccccc2)C1 [Example 194, methyl (3S,4R)-4-(3-(5-(difluoromethyl)-1,3,4-oxadiazol-2-yl)-5-oxo-5,7-dihydro-6H-pyrrolo[3,4-b]pyridin-6-yl)-3-phenylpiperidine-carboxylate]
100 | CCC(F)(F)C(=O)N[C@@H]1CCCC[C@H]1N1Cc2ncc(-c3nnc(C(F)F)o3)cc2C1=O [Example 195, N-((1R,2R)-2-(3-(5-(difluoromethyl)-1,3,4-oxadiazol-2-yl)-5-oxo-5,7-dihydro-6H-pyrrolo[3,4-b]pyridin-6-yl)cyclohexyl)-2,2-difluorobutanamide]
100 | O=C1c2cc(-c3nnc(C(F)F)o3)cnc2CN1[C@@H]1CCCC[C@H]1NC(=O)C(F)(F)C(F)(F)F [Example 196, N-((1R,2R)-2-(3-(5-(difluoromethyl)-1,3,4-oxadiazol-2-yl)-5-oxo-5,7-dihydro-6H-pyrrolo[3,4-b]pyridin-6-yl)cyclohexyl)-2,2,3,3,3-pentafluoropropanamide]
100 | O=C1c2cc(-c3nnc(C(F)F)o3)cc(F)c2CN1C[C@H]1COCCN1S(=O)(=O)C1CC1 [Example 197, 2-(((3S)-4-(cyclopropylsulfonyl)morpholin-3-yl)methyl)-6-(5-(difluoromethyl)-1,3,4-oxadiazol-2-yl)-4-fluoroisoindolin-1-one]
99 | Cc1ccc(S(=O)(=O)N2CCOC[C@@H]2CN2Cc3c(F)cc(-c4nnc(C(F)F)o4)cc3C2=O)cc1 [Example 198, 6-(5-(difluoromethyl)-1,3,4-oxadiazol-2-yl)-4-fluoro-2-(((3S)-4-((4-methylphenyl)sulfonyl)morpholin-3-yl)methyl)isoindolin-1-one]
100 | O=C1c2cc(-c3nnc(C(F)F)o3)cc(F)c2CN1C[C@H]1COCCN1S(=O)(=O)CC(F)(F)F [Example 199, 6-(5-(difluoromethyl)-1,3,4-oxadiazol-2-yl)-4-fluoro-2-(((3S)-4-((2,2,2-trifluoroethyl)sulfonyl)morpholin-3-yl)methyl)isoindolin-1-one]
100 | O=C1c2cc(-c3nnc(C(F)F)o3)cc(F)c2CN1[C@@H]1CCOC[C@H]1NC(=O)C(F)(F)C(F)(F)F [Example 200, N-((3S,4R)-4-(6-(5-(difluoromethyl)-1,3,4-oxadiazol-2-yl)-4-fluoro-1-oxo-1,3-dihydro-2H-isoindol-2-yl)tetrahydro-2H-pyran-3-yl)-2,2,3,3,3-pentafluoropropanamide]
101 | O=C1c2cc(-c3nnc(C(F)F)o3)cc(F)c2CN1[C@@H]1CCOC[C@H]1NC(=O)C1(C(F)(F)F)CC1 [Example 201, N-((3S,4R)-4-(6-(5-(difluoromethyl)-1,3,4-oxadiazol-2-yl)-4-fluoro-1-oxo-1,3-dihydro-2H-isoindol-2-yl)tetrahydro-2H-pyran-3-yl)-1-(trifluoromethyl)cyclopropanecarboxamide]
101 | CC(C)(C(=O)N[C@@H]1COCC[C@H]1N1Cc2c(F)cc(-c3nnc(C(F)F)o3)cc2C1=O)C(F)(F)F [Example 202, N-((3S,4R)-4-(6-(5-(difluoromethyl)-1,3,4-oxadiazol-2-yl)-4-fluoro-1-oxo-1,3-dihydro-2H-isoindol-2-yl)tetrahydro-2H-pyran-3-yl)-3,3,3-trifluoro-2,2-dimethylpropanamide]
100 | CCC(F)(F)C(=O)N[C@@H]1COCC[C@H]1N1Cc2c(F)cc(-c3nnc(C(F)F)o3)cc2C1=O [Example 203, N-((3S,4R)-4-(6-(5-(difluoromethyl)-1,3,4-oxadiazol-2-yl)-4-fluoro-1-oxo-1,3-dihydro-2H-isoindol-2-yl)tetrahydro-2H-pyran-3-yl)-2,2-difluorobutanamide]
100 | CCC(F)(F)C(=O)N[C@@H]1CCOC[C@H]1N1Cc2c(F)cc(-c3nnc(C(F)F)o3)cc2C1=O [Example 204]
101 | O=C1c2cc(-c3nnc(C(F)F)o3)cc(F)c2CN1[C@@H]1COCC[C@H]1NC(=O)C1(C(F)(F)F)CCC1 [Example 205, N-((3S,4R)-3-(6-(5-(difluoromethyl)-1,3,4-oxadiazol-2-yl)-4-fluoro-1-oxo-1,3-dihydro-2H-isoindol-2-yl)tetrahydro-2H-pyran-4-yl)-1-(trifluoromethyl)cyclobutanecarboxamide]
100 | Cn1ccc(-c2ccccc2N2Cc3ccc(-c4nnc(C(F)F)o4)cc3C2=O)n1 [Example 206, 6-(5-(difluoromethyl)-1,3,4-oxadiazol-2-yl)-2-(2-(1-methyl-1H-pyrazol-3-yl)phenyl)isoindolin-1-one]
100 | Cn1cc(-c2ccccc2N2Cc3ccc(-c4nnc(C(F)F)o4)cc3C2=O)cn1 [Example 207, 6-(5-(difluoromethyl)-1,3,4-oxadiazol-2-yl)-2-(2-(1-methyl-1H-pyrazol-4-yl)phenyl)isoindolin-1-one]
100 | O=C1c2cc(-c3nnc(C(F)F)o3)ccc2CN1c1ccccc1-c1cccnc1 [Example 208, 6-(5-(difluoromethyl)-1,3,4-oxadiazol-2-yl)-2-(2-(pyridin-3-yl)phenyl)isoindolin-1-one]
107 | O=C1c2cc(-c3nnc(C(F)F)o3)ccc2CN1CCOc1ccccc1 [Example 209, 6-(5-(difluoromethyl)-1,3,4-oxadiazol-2-yl)-2-(2-phenoxyethyl)isoindolin-1-one]
101 | CCC(F)(F)C(=O)N[C@@H]1CCCC[C@H]1N1Cc2c(F)cc(-c3nnc(C(F)F)o3)cc2C1=O [Example 210, N-((1R,2R)-2-(6-(5-(difluoromethyl)-1,3,4-oxadiazol-2-yl)-4-fluoro-1-oxo-1,3-dihydro-2H-isoindol-2-yl)cyclohexyl)-2,2-difluorobutanamide]
100 | CC1(C(=O)N[C@@H]2CCCC[C@H]2N2Cc3c(F)cc(-c4nnc(C(F)F)o4)cc3C2=O)COC1 [Example 211, N-((1R,2R)-2-(6-(5-(difluoromethyl)-1,3,4-oxadiazol-2-yl)-4-fluoro-1-oxo-1,3-dihydro-2H-isoindol-2-yl)cyclohexyl)-3-methyloxetane-3-carboxamide]
101 | O=C1c2cc(-c3nnc(C(F)F)o3)cc(F)c2CN1[C@@H]1CCOC[C@H]1NC(=O)C1(C(F)(F)F)CCC1 [Example 212, N-((3S,4R)-4-(6-(5-(difluoromethyl)-1,3,4-oxadiazol-2-yl)-4-fluoro-1-oxo-1,3-dihydro-2H-isoindol-2-yl)tetrahydro-2H-pyran-3-yl)-1-(trifluoromethyl)cyclobutanecarboxamide]
100 | CC(C)(OC(=O)N[C@@H]1COCC[C@H]1N1Cc2c(F)cc(-c3nnc(C(F)F)o3)cc2C1=O)C(F)(F)F [Example 213, 1,1,1-trifluoro-2-methylpropan-2-yl ((3S,4R)-4-(6-(5-(difluoromethyl)-1,3,4-oxadiazol-2-yl)-4-fluoro-1-oxo-1,3-dihydro-2H-isoindol-2-yl)tetrahydro-2H-pyran-3-yl)carbamate]
